We go through 21 compounds from ChEMBL document CHEMBL4813909, “Heterocyclic Diamidine DNA Ligands as HOXA9 Transcription Factor Inhibitors: Design, Molecular Evaluation, and Cellular Consequences in a HOXA9-Dependant Leukemia Cell Model” (J Med Chem, 2019).

SMILES strings stand for the structures. The source made the active and inactive calls. The calls are words filed in the database; no cut-off is given here.

Series [1] has as its system HOXA9 DNA binding site. Put plainly: Inhibition of HOXA9 (unknown origin) expressed in reticulocyte lysate system binding to 32P-radiolabeled DNA Hoxa9-binding site (strand a-CTGCGATGATTTACGACCGC /strand b-GCGGTCGTAAATCATCGCAG) (unknown origin) assessed as HOXA9/DNA inhibition at 2.5 to 20 uM incubated for 20 mins by electrophoretic mobility shift assay relative to control. Conditions: dose 2.5-20 µM. The series is classed as subcellular. For orientation: In EMSA bound probe runs differently from free probe, usually more slowly.

Series [2] can be described thus: Drug localization in nucleus of mouse MigA9 cells at 20 uM incubated for 2 hrs by TO-PRO-3/propidium iodide staining based by fluorescence microscopy. The series is classed as ADME, subcellular. To be noted: miga9, 2 h.
Series [3] in a line: Induction of cell death in mouse MigA9 cells harboring mouse Hoxa9 gene assessed as propidium iodide-positive cells at 15 uM incubated for 24 hrs by propidium iodide staining based flow cytometry (reference value: 9.06 +/- 0.53%). The series is classed as functional. (A flow cytometer gives signals particle by particle.)
Series [4] is described as follows: Induction of cell death in mouse MigA9 cells harboring mouse Hoxa9 gene assessed as propidium iodide-positive cells at 20 uM incubated for 24 hrs by propidium iodide staining based flow cytometry (reference value: 9.06 +/- 0.53%). Format: functional.
A short description of series [5]: Induction of cell cycle arrest in mouse MigA9 cells harboring mouse Hoxa9 gene assessed as accumulation at sub-G1 phase at 20 uM incubated for 48 hrs by propidium iodide staining based flow cytometry (reference value: 0.76 +/- 0.1%). Format: functional.
Series [6] is described as follows: Drug localization in nucleus of human HT-29 cells at 5 uM incubated for 16 hrs by DiOC6/propidium iodide staining based by fluorescence microscopy. Format: ADME, subcellular. Conditions: ht-29, 16 h.
The nature of series [7]: Induction of cell death in mouse MigA9 cells harboring mouse Hoxa9 gene assessed as propidium iodide-positive cells at 0.5 uM incubated for 24 hrs by propidium iodide staining based flow cytometry (reference value: 9.06 +/- 0.53%). Format: functional.
A short description of series [8]: Induction of cell death in mouse MigA9 cells harboring mouse Hoxa9 gene assessed as propidium iodide-positive cells at 1 uM incubated for 24 hrs by propidium iodide staining based flow cytometry relative to control. Format: functional.
The nature of series [9]: Induction of cell death in mouse MigA9 cells harboring mouse Hoxa9 gene assessed as propidium iodide-positive cells at 0.5 uM incubated for 48 hrs by propidium iodide staining based flow cytometry (reference value: 8.75 +/- 0.2%). Format: functional.
Series [10] can be described thus: Induction of cell death in mouse MigA9 cells harboring mouse Hoxa9 gene assessed as propidium iodide-positive cells at 1 uM incubated for 48 hrs by propidium iodide staining based flow cytometry (reference value: 8.75 +/- 0.2%). The series is classed as functional.
The nature of series [11]: Induction of cell cycle arrest in mouse MigA9 cells harboring mouse Hoxa9 gene assessed as accumulation at sub-G1 phase at 0.5 uM incubated for 48 hrs by propidium iodide staining based flow cytometry (reference value: 0.76 +/- 0.1%). The series is classed as functional.
A short description of series [12]: Induction of cell cycle arrest in mouse MigA9 cells expressing mouse Hoxa9 assessed as accumulation at G0/G1 phase at 0.5 uM incubated for 48 hrs by EdU/propidium iodide staining based flow cytometry (reference value: 48.77 +/- 0.19%). Format: functional.
Series [13] is described as follows: Induction of cell cycle arrest in mouse MigA9 cells expressing mouse Hoxa9 assessed as accumulation at S phase at 0.5 uM incubated for 48 hrs by EdU/propidium iodide staining based flow cytometry (reference value: 46.68 +/- 0.21%). The series is classed as functional.
Series [14] can be described thus: Induction of cell cycle arrest in mouse MigA9 cells expressing mouse Hoxa9 assessed as accumulation at G2/M phase at 0.5 uM incubated for 48 hrs by EdU/propidium iodide staining based flow cytometry (reference value: 4.55 +/- 0.16%). Format: functional.
Series [15] has as its system HOXA9 DNA binding site. Conditions: dose 0.5-1 µM.
Series [16] can be described thus: Induction of cell death in mouse MigA9 cells harboring mouse Hoxa9 gene assessed as propidium iodide-positive cells at 5 uM incubated for 24 hrs by propidium iodide staining based flow cytometry (reference value: 9.06 +/- 0.53%). The series is classed as functional.
Series [17] can be described thus: Induction of cell death in mouse MigA9 cells harboring mouse Hoxa9 gene assessed as propidium iodide-positive cells at 5 uM incubated for 48 hrs by propidium iodide staining based flow cytometry (reference value: 8.75 +/- 0.2%). The series is classed as functional.
Series [18] in a line: Induction of cell cycle arrest in mouse MigA9 cells harboring mouse Hoxa9 gene assessed as accumulation at sub-G1 phase at 5 uM incubated for 48 hrs by propidium iodide staining based flow cytometry (reference value: 0.76 +/- 0.1%). Format: functional.
The nature of series [19]: Induction of cell cycle arrest in mouse MigA9 cells expressing mouse Hoxa9 assessed as accumulation at G0/G1 phase at 5 uM incubated for 48 hrs by EdU/propidium iodide staining based flow cytometry (reference value: 48.77 +/- 0.19%). Format: functional.
Series [20] is described as follows: Induction of cell cycle arrest in mouse MigA9 cells expressing mouse Hoxa9 assessed as accumulation at S phase at 5 uM incubated for 48 hrs by EdU/propidium iodide staining based flow cytometry (reference value: 46.68 +/- 0.21%). The series is classed as functional.
A short description of series [21]: Induction of cell cycle arrest in mouse MigA9 cells expressing mouse Hoxa9 assessed as accumulation at G2/M phase at 5 uM incubated for 48 hrs by EdU/propidium iodide staining based flow cytometry (reference value: 4.55 +/- 0.16%). Format: functional.
The subject of series [22] is HOXA9 DNA binding site. Conditions: dose 1.0 µM.
In series [23] the test system is HOXA9 DNA binding site. To be noted: dose 0.5 µM.
A short description of series [24]: Cytotoxicity against mouse MigA9 cells harboring mouse Hoxa9 gene incubated for 72 hrs by MTS assay. Format: functional, cell-based. To be noted: MigA9, 72 h. On the technique in general: Tetrazolium dyes change colour on reduction, which living cells bring about.

For `Cn1c(-c2ccc(-c3ccc(C(=N)N)cc3)o2)nc2cc(C(=N)N)ccc21`, the inhibition entry with HOXA9 DNA binding site [1] was “inactive”. In series [2], the Drug transport entry was “Active”.
For the compound `COc1cc(C(=N)N)ccc1-c1ccc(-c2cc3ccc(C(=N)N)cc3[nH]2)o1`, the Drug transport entry in [2] is listed as “Active”.
Turning to `N=C(N)c1ccc(-c2cnc(-c3ccc(C(=N)N)cc3)o2)cc1`, the inhibition result in the series on HOXA9 DNA binding site [1] was “inactive”.
For `CC(C)n1c(-c2ccc(-c3ccc(C(=N)N)cc3)s2)nc2cc(-c3ccc(C(=N)N)cc3)ccc21`, in [2], the Drug transport entry is given as “Active”.
`N=C(N)c1ccc(-c2ccc(-c3cc4cc(C(=N)N)ccc4[nH]3)o2)nc1`: in [2], the Drug transport result is recorded as “Active”.
For `Cn1c(-c2ccc(-c3ccc(C(=N)N)cc3)s2)nc2cc(C(=N)N)ccc21`, in the series on HOXA9 DNA binding site [1], the inhibition entry was “inactive”. In addition, the Drug transport entry in series [2] is recorded as “Active”.
With `N=C(N)c1ccc(-c2cnc(-c3ccc(C(=N)N)cc3)s2)cc1`, in the series with HOXA9 DNA binding site [1], the inhibition result was “Active”. Further, the Activity in series [3] (dose 15 µM, time 24 hrs) stood at 5.69%; in series [4] (dose 20 µM, time 24 hrs) it was 5.91%; in series [5], 1.71%. Also, the Drug transport result in [2] is “Active”.
Take `N=C(N)c1ccc(-c2ccc(-c3nc4ccc(C(=N)N)cc4[nH]3)o2)nc1`: the Drug transport result in series [6] and in [2] was “Active” throughout.
Turning to `N=C(Nc1ccc(-c2ccc(-c3ccc(NC(=N)c4ccccc4)cc3)[nH]2)cc1)c1ccccc1`, the Activity in [7] came out at 12.9%; in series [8] it was 68.8%; in [9], 18.33%; in series [10], 99.33%; in [11], 2.47%; in [12], 53.83%. For the same compound, the Activity in [13] was found to be 38.84%; in series [14], 7.32%. The Drug transport result in series [2] is given as “Active”. The shift in melting temperature (ΔTm) with HOXA9 DNA binding site [15] was found to be 8 °C.
Regarding `N=C(N)c1ccc(-c2ccc(-c3ccc4ccc(C(=N)N)cc4c3)cc2)cc1`, the ΔTm in the series on HOXA9 DNA binding site [15] was 8 °C.
As to `N=C(N)c1ccc(-c2ccc(-c3cc4ccc(C(=N)N)cc4[nH]3)s2)cc1`, the Activity was 7.42% in series [16]; 77.87% in series [17]; 33.64% in [18]; 77.92% in [19]; 9.15% in series [20]; 12.93% in series [21]. Besides, in series [2], the Drug transport entry is reported as “Active”. Further, the thermal shift (ΔTm) in the series on HOXA9 DNA binding site [22] is more than 10 °C.
For the compound `N=C(N)c1ccc2nc(-c3ccc(-c4ccc(C(=N)N)nc4)o3)[nH]c2c1`, the Drug transport entry in series [6] is reported as “Active”. Also, in the series with HOXA9 DNA binding site [1], the inhibition result is “inactive”.
In the case of `N=C(N)c1ccc(-c2cccc(-c3nc4cc(C(=N)N)ccc4[nH]3)c2)cc1`, the Drug transport entry in series [2] is “Not Active”.
For `N=C(N)c1ccc(-c2ccc(-c3cc4ccc(C(=N)N)cc4[nH]3)o2)cc1`, the inhibition result in the series on HOXA9 DNA binding site [1] was “Active”. In series [3] (dose 15 µM, time 24 hrs), the Activity is given as 11.76%. Further, in series [2], the Drug transport entry was “Active”. The figures for the ΔTm in the series with HOXA9 DNA binding site [23] and with HOXA9 DNA binding site [22] were 7 °C and more than 10 °C, respectively.
As for `Cn1c(-c2ccc(-c3ccc(-c4nc5cc(C(=N)N)ccc5n4C)s3)cc2)nc2cc(C(=N)N)ccc21`, the inhibition result in the series with HOXA9 DNA binding site [1] is “inactive”. Further, the Drug transport entry in series [2] is on record as “Active”.
Consider `N=C(N)c1ccc(-c2ccc(-c3cc4ccc(C(=N)N)cc4[nH]3)s2)nc1`, for which the Activity in series [16] stood at 6.21%; in series [17], 39.4%; in series [18], 4.48%; in [19] it was 67.95%; in series [20], 22.55%; in series [21], 9.5%. Moreover, the ΔTm was 7 °C in the series with HOXA9 DNA binding site [23] and more than 10 °C in the series on HOXA9 DNA binding site [22].
`N=C(N)c1ccc(-n2ccc(-c3nc4ccc(C(=N)N)cc4[nH]3)n2)cc1`: the IC50 in series [24] is more than 50 µM. Also, the Activity is 8.64% in series [3] (miga9, at 15 µM); 10.43% in series [4] (miga9, at 20 µM); 0.67% in [5].
Consider `N=C(N)c1ccc(-c2ccc(-c3nc4cc(C(=N)N)ccc4[nH]3)o2)cc1`, for which, in series [6], the Drug transport result is given as “Active”. For the same compound, in the series with HOXA9 DNA binding site [1], the inhibition result was “inactive”.
On to `Cc1cc(C(=N)N)ccc1-c1ccc(-c2nc3ccc(C(=N)N)cc3[nH]2)o1`, for which the Drug transport entry in series [6] was “Active”.
In the case of `N=C(N)c1ccc(-c2ccc(-c3ccc(C(=N)N)cc3)o2)cc1` [FURAMIDINE], the Drug transport entry in series [2] was “Active”.
`N=C(N)c1ccc(-c2ccc(-c3nc4ccc(C(=N)N)cc4[nH]3)o2)c(O)c1`: in series [6], the Drug transport result is given as “Active”.

For orientation: ΔTm means the shift of the melting midpoint relative to a reference. As a reminder, the IC50 is the midpoint of a concentration-inhibition curve. Read a low IC50 as greater potency in that assay.
